In assay [1] the target is T1, KRas-mediated phosphorylation of ERK in A549 cells (Homo sapiens, UniProt P01116, G12S).
T1 construct: pERK HTRF read-out
Kind of assay: Inhibition of KRas-mediated phosphorylation of ERK (HTRF), A549 cells. In kind it is cell-based. To be noted: HTRF pERK, 3 h incubation.

For another assay, the target named is T2, KRas WT (Homo sapiens, UniProt P01116).
T2 construct: Biotinylated KRas (corresponding to amino acids 1-169, produced at Accelegan Inc.); biotin (biotinylated); purchased Accelegan Inc
T2 sequence (P01116 1-169 isoform P01116-2): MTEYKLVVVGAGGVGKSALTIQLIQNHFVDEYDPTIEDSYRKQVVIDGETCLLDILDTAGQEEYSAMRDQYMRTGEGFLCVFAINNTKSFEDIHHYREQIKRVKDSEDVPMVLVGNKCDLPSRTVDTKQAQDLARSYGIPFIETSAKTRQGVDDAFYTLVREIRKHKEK
Kind of assay: KRas binding assay, TR-FRET displacement of Cy5 labelled tracer. To be noted: 60-minute incubation at room temperature, 1% DMSO, pH 7.5. The gist of the method: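 IC50 came from fitting POC values with a four-parameter equation. Signal was read after one hour at room temperature. Protein was biotin-tagged KRas 1-169 captured by terbium streptavidin, with compound in 1% DMSO (final).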

For a further assay, the target named is T3, KRas G12S (Homo sapiens, UniProt P01116, G12S).
T3 construct: Biotinylated KRas (corresponding to amino acids 1-169, produced at Accelegan Inc.); biotin (biotinylated); purchased Accelegan Inc
T3 sequence (P01116 1-169 isoform P01116-2 G12S): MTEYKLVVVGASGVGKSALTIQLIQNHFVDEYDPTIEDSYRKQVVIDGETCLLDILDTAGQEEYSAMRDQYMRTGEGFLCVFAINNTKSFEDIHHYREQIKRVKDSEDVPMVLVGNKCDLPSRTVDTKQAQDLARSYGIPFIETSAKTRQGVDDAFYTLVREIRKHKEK
The description is as above. The note with it: 60-minute incubation at room temperature, 1% DMSO, pH 7.5. The gist of the method:
(§1)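 Biotinylated KRas (residues 1-169) was incubated with tracer, terbium-streptavidin and compound at 1% DMSO final in 50 mM HEPES pH 7.5 containing 5 mM MgCl2, 0.005% Tween-20 and 1 mM DTT. The plate was read after 60 min at room temperature, and percent-of-control data were fit to a 4-parameter IC50 equation.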

A further assay deals with T4, KRas G12C (Homo sapiens, UniProt P01116, G12C).
T4 construct: Biotinylated KRas (corresponding to amino acids 1-169, produced at Accelegan Inc.); biotin (biotinylated); purchased Accelegan Inc
T4 sequence (P01116 1-169 isoform P01116-2 G12C): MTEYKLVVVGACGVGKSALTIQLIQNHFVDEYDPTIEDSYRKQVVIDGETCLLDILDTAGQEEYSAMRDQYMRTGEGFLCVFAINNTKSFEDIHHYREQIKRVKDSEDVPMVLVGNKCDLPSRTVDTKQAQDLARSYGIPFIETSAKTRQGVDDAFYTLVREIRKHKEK
Described as above. The note with it: 60-minute incubation at room temperature, 1% DMSO, pH 7.5. The gist of the method:
as §1

In assay [2] the target is T5, KRas-mediated phosphorylation of ERK in H358 cells (Homo sapiens, UniProt P01116, G12C).
T5 construct: pERK HTRF read-out
T5 sequence (P01116 1-188 isoform P01116-2 G12C): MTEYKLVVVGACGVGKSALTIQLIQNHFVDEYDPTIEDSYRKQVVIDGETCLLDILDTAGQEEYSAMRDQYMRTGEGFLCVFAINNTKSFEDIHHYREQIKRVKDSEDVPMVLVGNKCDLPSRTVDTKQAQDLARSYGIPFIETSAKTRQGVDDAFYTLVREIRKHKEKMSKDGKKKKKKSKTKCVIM
Kind of assay: Inhibition of KRas-mediated phosphorylation of ERK (HTRF), H358 cells. In kind it is cell-based. To be noted: HTRF pERK, 3 h incubation. In general terms: TR-FRET usually uses a lanthanide donor and a delayed reading to cut background.

Assay [3] deals with T6, KRas-mediated phosphorylation of ERK in MKN1 cells (Homo sapiens, UniProt P01116).
T6 construct: pERK HTRF read-out
T6 sequence (P01116 1-188 isoform P01116-2): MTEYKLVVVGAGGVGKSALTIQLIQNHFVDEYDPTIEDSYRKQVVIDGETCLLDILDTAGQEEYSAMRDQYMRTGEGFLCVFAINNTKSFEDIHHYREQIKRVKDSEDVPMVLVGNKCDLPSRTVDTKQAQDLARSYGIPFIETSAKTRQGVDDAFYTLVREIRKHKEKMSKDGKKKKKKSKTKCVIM
Kind of assay: Inhibition of KRas-mediated phosphorylation of ERK (HTRF), MKN1 cells. In kind it is cell-based. The note with it: MKN1 cells (KRas WT); HTRF pERK; 3 h incubation. On the procedure: Inhibition of KRas Phosphorylation of ERK (HTRF) by Exemplary Compounds of Formula (Ia) or (Ib)
Cisbio HTRF Advanced pERK Assay Catalog #64AERPEH • Cells: MKN1, PSN1 • Procedure: • 1. Day 1: Seed 6,000 cells/well −25 μl/well in 384-well white solid bottom plate; RPM1_10% FBS. Incubate overnight at 37 °C/5% CO2. • 2.

This note sets out measurements from patent publication US20260356856A1, “KRAS G12S AND G12C INHIBITORS” (MIRATI THERAPEUTICS, INC., priority 2023, published 2026).

T1 sequence (P01116 1-188 isoform P01116-2 G12S): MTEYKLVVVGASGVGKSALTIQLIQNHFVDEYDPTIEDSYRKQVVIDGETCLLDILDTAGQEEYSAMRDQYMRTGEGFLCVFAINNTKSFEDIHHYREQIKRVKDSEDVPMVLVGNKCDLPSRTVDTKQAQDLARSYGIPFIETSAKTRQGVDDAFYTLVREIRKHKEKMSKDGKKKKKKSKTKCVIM

Turning to `N#Cc1c(N)sc2c(F)ccc(-c3c(Cl)cc4c(N5CCN(S(=O)(=O)n6cncn6)CC5)nc(OC[C@@]56CCCN5C[C@H](F)C6)nc4c3F)c12` [Example 186, 4-(4-(4-((1H-1,2,4-triazol-1-yl)sulfonyl)piperazin-1-yl)-6-chloro-8-fluoro-2-(((2R,7aS)-2-fluorotetrahydro-1H-pyrrolizin-7a(5H)-yl)methoxy)quinazolin-7-yl)-2-amino-7-fluorobenzo[b]thiophene-3-carbonitrile], the IC50 in assay [1] is 2830 nM; at KRas WT, 32 nM; on KRas G12S, 156 nM; at KRas G12C, 136 nM; in assay [2], 1120 nM; in assay [3] it was 184 nM.
For `CN(CCCC(=O)Nc1cccnc1)c1nc(OC[C@@]23CCCN2C[C@H](F)C3)nc2c(F)c(-c3ccc(F)c4sc(N)c(C#N)c34)c(Cl)cc12` [Example 201, 4-((7-(2-amino-3-cyano-7-fluorobenzo[b]thiophen-4-yl)-6-chloro-8-fluoro-2-(((2R,7aS)-2-fluorotetrahydro-1H-pyrrolizin-7a(5H)-yl)methoxy)quinazolin-4-yl)(methyl)amino)-N-(pyridin-3-yl)butanamide], the IC50 in assay [1] amounted to 1570 nM; at KRas WT, 6 nM; on KRas G12S, 5 nM; on KRas G12C, 4 nM; in assay [2] it was 373 nM; in assay [3], 251 nM.
For `CCc1c(F)ccc2cc(O)cc(-c3ncc4c(N5CCC(C(=O)N(C)C(C)=O)CC5)nc(OC[C@@]56CCCN5C[C@H](F)C6)nc4c3F)c12` [Example 155, N-acetyl-1-(7-(8-ethyl-7-fluoro-3-hydroxynaphthalen-1-yl)-8-fluoro-2-(((2R,7aS)-2-fluorotetrahydro-1H-pyrrolizin-7a(5H)-yl)methoxy)pyrido[4,3-d]pyrimidin-4-yl)-N-methylpiperidine-4-carboxamide], the IC50 in assay [1] worked out at 445 nM; at KRas WT, 140 nM; at KRas G12S, 135 nM; on KRas G12C, 204 nM; in assay [2], 2530 nM; in assay [3], 671 nM.
Consider `CCc1c(F)ccc2cc(O)cc(-c3ncc4c(N(CC)CCCC(=O)n5ccc(C)n5)nc(OC[C@@]56CCCN5C[C@H](F)C6)nc4c3F)c12` [Example 164, 4-(ethyl(7-(8-ethyl-7-fluoro-3-hydroxynaphthalen-1-yl)-8-fluoro-2-(((2R,7aS)-2-fluorotetrahydro-1H-pyrrolizin-7a(5H)-yl)methoxy)pyrido[4,3-d]pyrimidin-4-yl)amino)-1-(3-methyl-1H-pyrazol-1-yl) butan-1-one], for which the IC50 worked out at 50 nM in assay [1]; 103 nM at KRas WT; 8 nM on KRas G12S; 5 nM on KRas G12C; 999 nM in assay [2]; 2210 nM in assay [3].
With `CN(CCCC(=O)N(C)c1ccccn1)c1nc(OC[C@@]23CCCN2C[C@H](F)C3)nc2c(F)c(-c3ccc(F)c4sc(N)c(C#N)c34)c(Cl)cc12` [Example 200, 4-((7-(2-amino-3-cyano-7-fluorobenzo[b]thiophen-4-yl)-6-chloro-8-fluoro-2-(((2R,7aS)-2-fluorotetrahydro-1H-pyrrolizin-7a(5H)-yl)methoxy)quinazolin-4-yl)(methyl)amino)-N-methyl-N-(pyridin-2-yl) butanamide], the IC50 in assay [1] turned out to be 729 nM; on KRas WT, 5 nM; on KRas G12S, 4 nM; at KRas G12C, 2 nM; in assay [2], 112 nM; in assay [3], 86 nM.
As to `CCc1c(F)ccc2cc(O)cc(-c3ncc4c(N5CCCCCC(C(=O)n6ccc(C)n6)C5)nc(OC[C@@]56CCCN5C[C@H](F)C6)nc4c3F)c12` (stereo partly drawn) [Example 55, (1-(7-(8-ethyl-7-fluoro-3-hydroxynaphthalen-1-yl)-8-fluoro-2-(((2R,7aS)-2-fluorotetrahydro-1H-pyrrolizin-7a(5H)-yl)methoxy)pyrido[4,3-d]pyrimidin-4-yl)azocan-3-yl)(3-methyl-1H-pyrazol-1-yl)methanone], the IC50 in assay [1] turned out to be 116 nM; at KRas WT it was 7 nM; at KRas G12S, 28 nM; on KRas G12C, 5 nM; in assay [2], 90 nM; in assay [3], 50 nM.
With `CCc1c(F)ccc2cc(O)cc(-c3ncc4c(N5CCC(C(=O)n6cc(C(C)C)cn6)CC5)nc(OC[C@@]56CCCN5C[C@H](F)C6)nc4c3F)c12` [Example 80, (1-(7-(8-ethyl-7-fluoro-3-hydroxynaphthalen-1-yl)-8-fluoro-2-(((2R,7aS)-2-fluorotetrahydro-1H-pyrrolizin-7a(5H)-yl)methoxy)pyrido[4,3-d]pyrimidin-4-yl)piperidin-4-yl)(4-isopropyl-1H-pyrazol-1-yl)methanone], the IC50 in assay [1] came out at 431 nM; at KRas WT, 432 nM; on KRas G12S it was 197 nM; on KRas G12C, 307 nM; in assay [2], 9700 nM; in assay [3] it was 3380 nM.
For `CC(=O)N(C)C(=O)C(C)CCN(C)c1nc(OC[C@@]23CCCN2C[C@H](F)C3)nc2c(F)c(-c3ccc(F)c4sc(N)c(C#N)c34)c(Cl)cc12` (stereo partly drawn) [Example 304, N-acetyl-4-((7-(2-amino-3-cyano-7-fluorobenzo[b]thiophen-4-yl)-6-chloro-8-fluoro-2-(((2R,7aS)-2-fluorotetrahydro-1H-pyrrolizin-7a(5H)-yl)methoxy)quinazolin-4-yl)(methyl)amino)-N,2-dimethylbutanamide], the IC50 worked out at 3 nM in assay [1]; 12 nM on KRas WT; 4 nM on KRas G12S; 5 nM on KRas G12C; 3 nM in assay [2]; 60 nM in assay [3].
Consider `COCc1ccn(C(=O)C2CCCN(c3nc(OC[C@@]45CCCN4C[C@H](F)C5)nc4c(F)c(-c5ccc(F)c6sc(N)c(C#N)c56)c(Cl)cc34)CC2)n1` (stereo partly drawn) [Example 190, 2-amino-4-(6-chloro-8-fluoro-2-(((2R,7aS)-2-fluorotetrahydro-1H-pyrrolizin-7a(5H)-yl)methoxy)-4-(4-(3-(methoxymethyl)-1H-pyrazole-1-carbonyl)azepan-1-yl)quinazolin-7-yl)-7-fluorobenzo[b]thiophene-3-carbonitrile], for which the IC50 turned out to be 7 nM in assay [1]; 13 nM at KRas WT; 4 nM on KRas G12S; 5 nM on KRas G12C; 7 nM in assay [2]; 205 nM in assay [3].
With `CN(CCCC(=O)N(C)c1ccncc1)c1nc(OC[C@@]23CCCN2C[C@H](F)C3)nc2c(F)c(-c3ccc(F)c4sc(N)c(C#N)c34)c(Cl)cc12` [Example 267, 4-((7-(2-amino-3-cyano-7-fluorobenzo[b]thiophen-4-yl)-6-chloro-8-fluoro-2-(((2R,7aS)-2-fluorotetrahydro-1H-pyrrolizin-7a(5H)-yl)methoxy)quinazolin-4-yl)(methyl)amino)-N-methyl-N-(pyridin-4-yl) butanamide], the IC50 in assay [1] was 653 nM; on KRas WT, 9 nM; at KRas G12S, 8 nM; on KRas G12C it was 5 nM; in assay [2], 230 nM; in assay [3], 354 nM.
With `Cc1ccccc1OC(=O)C1CCN(c2nc(OC[C@@]34CCCN3C[C@H](F)C4)nc3c(F)c(-c4ccc(F)c5sc(N)c(C#N)c45)c(Cl)cc23)CC1` [Example 243, o-tolyl 1-(7-(2-amino-3-cyano-7-fluorobenzo[b]thiophen-4-yl)-6-chloro-8-fluoro-2-(((2R,7aS)-2-fluorotetrahydro-1H-pyrrolizin-7a(5H)-yl)methoxy)quinazolin-4-yl)piperidine-4-carboxylate], the IC50 in assay [1] came to 215 nM; on KRas WT, 330 nM; at KRas G12S it was 127 nM; on KRas G12C it was 19 nM; in assay [2] it was 26 nM; in assay [3] it was 736 nM.
In the case of `CC(=O)N(C)C(=O)[C@H]1CCCN(c2nc(OC[C@@]34CCCN3C[C@H](F)C4)nc3c(F)c(-c4ccc(F)c5sc(N)c(C#N)c45)c(Cl)cc23)CC1` (atropisomer, axis not shown; (aS)) [Example 256, (S)—N-acetyl-1-((S)-7-(2-amino-3-cyano-7-fluorobenzo[b]thiophen-4-yl)-6-chloro-8-fluoro-2-(((2R,7aS)-2-fluorotetrahydro-1H-pyrrolizin-7a(5H)-yl)methoxy)quinazolin-4-yl)-N-methylazepane-4-carboxamide], the IC50 in assay [1] stood at 3 nM; on KRas WT, 4 nM; at KRas G12S, 2 nM; on KRas G12C, 5 nM; in assay [2] it was 8 nM; in assay [3], 19 nM.

As a reminder, the IC50 is the midpoint of a concentration-inhibition curve. A lower IC50 goes with greater potency.
